Values belong to the compound of their own block, whether it stands above or below them. Active and inactive are the calls of the source. The rule behind the calls is not given here.
How the values were obtained:
[1] = tested on: SW1573; test: Growth inhibition of human SW1573 cells; format: functional
[2] = tested on: T47D; test: Growth inhibition of human T47D cells; format: functional
[3] = tested on: WiDr; test: Growth inhibition of human WiDr cells; format: functional
[4] = tested on: HBL-100; test: Growth inhibition of human HBL100 cells; format: functional
[5] = tested on: A2780; test: Growth inhibition of human A2780 cells; format: functional
[6] = tested on: WiDr; test: Cell cycle arrest in human WiDr cells assessed as decrease in cells at S phase at 7 to 21 uM after 24 hrs by flow cytometry; format: functional, cell-based
[7] = tested on: HeLa; test: Cell cycle arrest in human HeLa cells assessed as increase in level of phosphorylated histone H3 at ser10 at 7 to 21 uM after 24 hrs by Western blot analysis; format: functional, cell-based
[8] = tested on: WiDr; test: Cell cycle arrest in human WiDr cells assessed as decrease in cells at G1 phase at 7 to 21 uM after 24 hrs by flow cytometry; format: functional, cell-based
[9] = tested on: T47D; test: Cell cycle arrest in human T47D cells assessed as decrease in cells at S phase at 7 to 21 uM after 24 hrs by flow cytometry; format: functional, cell-based
[10] = tested on: HeLa; test: Cell cycle arrest in human HeLa cells assessed as accumulation at G2/M phase after 24 hrs by flow cytometry; format: functional, cell-based
[11] = tested on: HBL-100; test: Induction of apoptosis in human HBL100 cells assessed as increase in sub-G1 DNA content at 7 to 21 uM after 24 hrs by flow cytometry; format: functional
[12] = tested on: HeLa; test: Cell cycle arrest in human HeLa cells assessed as effect on cyclin B1 protein at 7 to 21 uM after 24 hrs by Western blot analysis; format: functional, cell-based
[13] = tested on: SW1573; test: Induction of apoptosis in human SW1573 cells assessed as increase in sub-G1 DNA content at 7 to 21 uM after 24 hrs by flow cytometry; format: functional
[14] = tested on: HBL-100; test: Cell cycle arrest in human HBL100 cells assessed as accumulation at G2/M phase after 24 hrs by flow cytometry; format: functional, cell-based
[15] = tested on: HeLa; test: Growth inhibition of human HeLa cells; format: functional
[16] = tested on: HeLa; test: Induction of apoptosis in human HeLa cells assessed as increase in sub-G1 DNA content at 7 to 21 uM after 24 hrs by flow cytometry; format: functional
[17] = tested on: HeLa; test: Cell cycle arrest in human HeLa cells assessed as increase in phosphorylated BubR1 level at 7 to 21 uM after 24 hrs by Western blot analysis; format: functional, cell-based
[18] = tested on: Ishikawa; test: Growth inhibition of human Ishikawa cells; format: functional
[19] = tested on: HeLa; test: Cell cycle arrest in human HeLa cells assessed as decrease in cells at G1 phase at 7 to 21 uM after 24 hrs by flow cytometry; format: functional, cell-based
[20] = tested on: T47D; test: Cell cycle arrest in human T47D cells assessed as accumulation at G2/M phase after 24 hrs by flow cytometry; format: functional, cell-based
[21] = tested on: T47D; test: Cell cycle arrest in human T47D cells assessed as decrease in cells at G1 phase at 7 to 21 uM after 24 hrs by flow cytometry; format: functional, cell-based
[22] = tested on: HeLa; test: Cell cycle arrest in human HeLa cells assessed as phosphorylated histone H3 at ser10 at 21 uM after 24 hrs by flow cytometry (reference value: […]); format: functional
[23] = tested on: WiDr; test: Cell cycle arrest in human WiDr cells assessed as accumulation at G2/M phase after 24 hrs by flow cytometry; format: functional, cell-based
[24] = tested on: SW1573; test: Cell cycle arrest in human SW1573 cells assessed as accumulation at G2/M phase after 24 hrs by flow cytometry; format: functional, cell-based
[25] = tested on: HeLa; test: Induction of apoptosis in human HeLa cells assessed as PARP cleavage at 7 to 21 uM after 24 hrs by immunoblotting; format: functional, cell-based
[26] = tested on: WiDr; test: Induction of apoptosis in human WiDr cells assessed as increase in sub-G1 DNA content at 7 to 21 uM after 24 hrs by flow cytometry; format: functional
[27] = tested on: HeLa; test: Cell cycle arrest in human HeLa cells assessed as decrease in cells at S phase at 7 to 21 uM after 24 hrs by flow cytometry; format: functional, cell-based
[28] = tested on: SW1573; test: Cell cycle arrest in human SW1573 cells assessed as decrease in cells at S phase at 7 to 21 uM after 24 hrs by flow cytometry; format: functional, cell-based
[29] = tested on: HeLa; test: Cell cycle arrest in human HeLa cells assessed as decrease in phosphorylated RB protein at 7 to 21 uM after 24 hrs by Western blot analysis; format: functional, cell-based
[30] = tested on: HBL-100; test: Cell cycle arrest in human HBL100 cells assessed as decrease in cells at S phase at 7 to 21 uM after 24 hrs by flow cytometry; format: functional, cell-based
[31] = tested on: HBL-100; test: Cell cycle arrest in human HBL100 cells assessed as decrease in cells at G1 phase at 7 to 21 uM after 24 hrs by flow cytometry; format: functional, cell-based
[32] = tested on: T47D; test: Induction of apoptosis in human T47D cells assessed as increase in sub-G1 DNA content at 7 to 21 uM after 24 hrs by flow cytometry; format: functional
[33] = tested on: SW1573; test: Cell cycle arrest in human SW1573 cells assessed as decrease in cells at G1 phase at 7 to 21 uM after 24 hrs by flow cytometry; format: functional, cell-based

SMILES: CSc1nc(N)c(N=O)c(NCCc2ccccc2)n1
GI50 [1]: 37 µM
GI50 [2]: > 100 µM
GI50 [15]: 27 µM
GI50 [18]: > 100 µM
GI50 [3]: > 100 µM
GI50 [4]: 12 µM
GI50 [5]: > 100 µM

SMILES: Cn1c(=O)c(=O)n(O)c2c(NCCc3ccccc3)ncnc21
GI50 [1]: 59 µM
GI50 [2]: > 100 µM
GI50 [15]: > 100 µM
GI50 [18]: > 100 µM
GI50 [3]: > 100 µM
GI50 [4]: 54 µM
GI50 [5]: > 100 µM

SMILES: Cn1c(=O)c(=O)n(O)c2c(NCCN3CCOCC3)ncnc21
GI50 [1]: > 100 µM
GI50 [2]: > 100 µM
GI50 [15]: > 100 µM
GI50 [18]: > 100 µM
GI50 [3]: > 100 µM
GI50 [4]: > 100 µM
GI50 [5]: > 100 µM

Compounds with a lower GI50 [1], results first:

GI50 [1]: 15 µM
GI50 [2]: 22 µM
GI50 [15]: 3 µM
SMILES: COc1cc([C@@H]2c3cc4c(cc3[C@@H](O[C@@H]3O[C@@H]5CO[C@@H](C)O[C@H]5[C@H](O)[C@H]3O)[C@H]3COC(=O)[C@H]23)OCO4)cc(OC)c1O [ETOPOSIDE]
GI50 [18]: 11 µM
GI50 [3]: 23 µM
GI50 [4]: 2.3 µM

GI50 [1]: 3.2 µM
GI50 [2]: 7 µM
GI50 [15]: 4.5 µM
GI50 [5]: 3.4 µM
SMILES: CNc1ncnc(NCCc2ccccc2)c1N=O
Activity [6]: Active
Activity [7]: Active
Activity [8]: Active
Activity [9]: Active
Activity [10]: Dose-dependent effect
Activity [11]: <8.5%
Activity [12]: inactive
Activity [13]: <8.5%
Activity [14]: Dose-dependent effect
Activity [16]: <8.5%
Activity [17]: Active
GI50 [18]: 3.8 µM
Activity [19]: Active
Activity [20]: Dose-dependent effect
Activity [21]: Active
Activity [22]: 15.1%
GI50 [3]: 7.2 µM
Activity [23]: Dose-dependent effect
Activity [24]: Dose-dependent effect
Activity [25]: inactive
Activity [26]: <8.5%
Activity [27]: Active
Activity [28]: Active
GI50 [4]: 3.6 µM
Activity [29]: Active
Activity [30]: Active
Activity [31]: Active
Activity [32]: <8.5%
Activity [33]: Active

GI50 [1]: 0.005 µM
GI50 [2]: 0.00015 µM
GI50 [5]: 0.00027 µM
SMILES: CC(=O)O[C@H]1C(=O)[C@@]2(C)[C@H]([C@H](OC(=O)c3ccccc3)[C@]3(O)C[C@H](OC(=O)[C@H](O)[C@@H](NC(=O)c4ccccc4)c4ccccc4)C(C)=C1C3(C)C)[C@]1(OC(C)=O)CO[C@@H]1C[C@@H]2O [PACLITAXEL]
GI50 [3]: 0.00022 µM
GI50 [4]: 1.7e-05 µM
